Values belong to the compound of their own block, whether it stands above or below them.
Target: T1, human NaV1.8 (Homo sapiens, UniProt Q9Y5Y9)
T1 construct: The following NaV1.8 recombinant cell line was used for recordings: HEK-NaV1.8 (NM 006514.1); expressed in transfected cells; host or cells: HEK (recombinant cell line HEK-NaV1.8)
Assay: Electrophysiology: automated whole-cell voltage-clamp (patch clamp, Qube384) recordings of sodium currents in HEK-NaV1.8 cells
Type: cell-based
Conditions: potency data either taken from inactivated or resting state, read-out: Potency category (human NaV1.8 IC50)
Experimental: Electrophysiology: Voltage-Clamp Recordings
The following NaV1.8 recombinant cell line was used for recordings: HEK-NaV1.8 (NM 006514.1) with in (NM 018400.3).
Sodium currents were measured using the patch clamp technique in the whole-cell configuration using the Qube384 (Sophion A/S, Copenhagen, Denmark) automated voltage clamp platform. “Multi hole” plates were used for the cell line expressing NaV1.8 while “single hole” plates were used for the recombinant cell lines expressing the other subtypes. Appropriate filters (for minimum seal resistance and minimum current size) and series resistance compensation (for high quality sodium channel recordings) were applied. Data was collected at ambient room temperature.
The recording extracellular solution contained (in mM): NaCl 145 mM, KCl 4 mM, CaCl2 2 mM, MgCl2 1 mM, HEPES 10 mM, Glucose 10 mM, pH 7.4 (NaOH). The intracellular recording solution contained (in mM): CsF 120 mM, CsCl 20 mM, NaCl 10 mM, EGTA 10 mM, HEPES 10 mM, pH 7.2 (CsOH). Currents were recorded at 25 kHz sampling frequency and filtered at 5 kHz. Series resistance compensation was applied at 65%.
Vehicle (VEH) is the control condition where cells are exposed to 0.3% DMSO without compound. All runs include VEH controls being exposed to the same voltage protocols to assess non-compound related phenomena such as run down and then used to isolate compound dependent effects on currents.
To check for state-dependence inhibition, the following voltage-sequence was applied every 20 seconds:
From a resting membrane potential of −120 mV, the first test pulse (P1; 20 ms to −10 mV) was applied to check for channels in the Resting State followed by a brief recovery (20 ms to −120 mV), then holding the membrane voltage to V112 (4 seconds at voltage to obtain half the channel at Rest and half Inactivated) with a subsequent second test pulse (P2; 20 ms to −10 mV) to check for channels in the Inactivated State, followed by another brief recovery (20 ms to −120 mV) and a final third test pulse (P3; 20 ms to −10 mV) to check for recovered channels.
To check for frequency-dependent inhibition, a 10 Hz protocol and a 20 Hz protocol were applied; namely,
From a resting membrane potential of −120 mV, 40-pulses (10 ms to −10 mV) was applied at 10 Hz (at 100 ms between pulses) and then at 20 Hz (at 50 ms between pulses).
Each parameter was recorded (P1, P2, P3, P40 from 10 Hz and P40 from 20 Hz) during a control period (lasting 5 minutes) when establishing the baseline and during compound period (lasting ˜12 minutes) when test compound (or vehicle) was applied. For each parameter, the value at the end of the compound period was normalized to the vehicle baseline; as follows
To adjust for any variance in the Na^+ current signal during the compound period (owing to cumulative inactivation independent of compound or shifts in biophysics over time), a dedicated segment of the recording wells in each 384 plate were dedicated to having only vehicle exposure. These vehicle-only recordings were used to correct for any apparent “run-up” or “run-down” in the experiment.
The adjusted inhibition was calculated as follows: […]
Percent inhibition was determined and IC50 values were calculated using a 4 parameter logistic model within XLFit Software (IDBS, Boston MA):
[formula] where A and B are the maximal and minimum inhibition respectively, C is the IC50 concentration and D is the (Hill) slope.
The potency data was either taken from inactivated or resting state.

T1 sequence (Q9Y5Y9 whole entry): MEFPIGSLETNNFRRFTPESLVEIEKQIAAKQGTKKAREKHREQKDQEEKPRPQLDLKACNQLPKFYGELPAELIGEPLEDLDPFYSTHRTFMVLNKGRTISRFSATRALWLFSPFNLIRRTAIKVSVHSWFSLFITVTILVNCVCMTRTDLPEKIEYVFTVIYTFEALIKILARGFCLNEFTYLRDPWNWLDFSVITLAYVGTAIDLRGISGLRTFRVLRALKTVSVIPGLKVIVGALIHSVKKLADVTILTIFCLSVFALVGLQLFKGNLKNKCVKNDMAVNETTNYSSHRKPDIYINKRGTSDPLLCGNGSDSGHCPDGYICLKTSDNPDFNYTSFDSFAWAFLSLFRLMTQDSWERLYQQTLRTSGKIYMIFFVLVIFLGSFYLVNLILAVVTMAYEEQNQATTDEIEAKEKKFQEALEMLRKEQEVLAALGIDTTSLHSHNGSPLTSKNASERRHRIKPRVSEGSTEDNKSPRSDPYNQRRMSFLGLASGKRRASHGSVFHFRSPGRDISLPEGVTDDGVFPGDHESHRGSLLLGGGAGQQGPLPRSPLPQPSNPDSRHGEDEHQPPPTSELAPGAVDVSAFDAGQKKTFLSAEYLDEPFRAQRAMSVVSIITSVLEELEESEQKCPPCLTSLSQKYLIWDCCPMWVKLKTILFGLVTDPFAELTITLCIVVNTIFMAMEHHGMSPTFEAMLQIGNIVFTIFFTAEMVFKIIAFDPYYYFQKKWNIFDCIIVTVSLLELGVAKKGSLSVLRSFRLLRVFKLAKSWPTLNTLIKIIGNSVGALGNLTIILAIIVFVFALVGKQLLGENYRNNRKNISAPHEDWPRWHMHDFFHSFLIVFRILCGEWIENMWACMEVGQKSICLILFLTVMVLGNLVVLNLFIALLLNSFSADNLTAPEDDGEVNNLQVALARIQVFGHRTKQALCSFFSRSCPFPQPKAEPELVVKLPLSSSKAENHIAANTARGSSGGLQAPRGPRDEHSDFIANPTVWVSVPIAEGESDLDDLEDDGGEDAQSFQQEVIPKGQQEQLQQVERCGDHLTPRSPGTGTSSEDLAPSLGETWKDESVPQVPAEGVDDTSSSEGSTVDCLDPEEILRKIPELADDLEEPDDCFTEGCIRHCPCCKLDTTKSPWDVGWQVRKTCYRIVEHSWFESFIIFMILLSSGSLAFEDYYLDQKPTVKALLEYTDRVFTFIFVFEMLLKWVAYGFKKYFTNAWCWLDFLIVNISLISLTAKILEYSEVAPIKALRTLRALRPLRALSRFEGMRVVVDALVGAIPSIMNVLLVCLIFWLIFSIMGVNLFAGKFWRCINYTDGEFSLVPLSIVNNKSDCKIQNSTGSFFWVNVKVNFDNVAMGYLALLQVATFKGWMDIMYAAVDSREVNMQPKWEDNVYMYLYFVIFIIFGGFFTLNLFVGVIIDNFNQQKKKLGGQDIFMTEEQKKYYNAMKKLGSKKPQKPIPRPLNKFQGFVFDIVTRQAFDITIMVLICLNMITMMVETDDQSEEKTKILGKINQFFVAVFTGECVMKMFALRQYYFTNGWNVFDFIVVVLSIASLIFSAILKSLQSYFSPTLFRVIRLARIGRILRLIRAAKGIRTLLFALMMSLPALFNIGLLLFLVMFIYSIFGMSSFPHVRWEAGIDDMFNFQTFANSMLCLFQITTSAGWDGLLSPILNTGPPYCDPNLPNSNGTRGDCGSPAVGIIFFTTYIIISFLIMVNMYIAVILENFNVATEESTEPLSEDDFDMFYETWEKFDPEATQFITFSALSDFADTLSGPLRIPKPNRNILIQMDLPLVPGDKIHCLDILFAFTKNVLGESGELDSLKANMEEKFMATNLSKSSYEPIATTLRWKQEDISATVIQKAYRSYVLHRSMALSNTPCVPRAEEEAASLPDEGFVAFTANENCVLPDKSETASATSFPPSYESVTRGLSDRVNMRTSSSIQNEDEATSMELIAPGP
T1 sequence (Q9NY72 23-215 partner): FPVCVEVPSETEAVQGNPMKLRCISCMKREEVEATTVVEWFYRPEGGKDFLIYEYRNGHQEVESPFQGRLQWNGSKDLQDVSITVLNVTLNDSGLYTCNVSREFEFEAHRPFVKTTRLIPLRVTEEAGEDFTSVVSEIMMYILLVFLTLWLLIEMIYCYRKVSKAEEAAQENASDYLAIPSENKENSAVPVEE

IC50: ≤ 100 nM
SMILES: NC(=O)c1cc(NC(=O)c2c(C(F)(F)F)c(C3CC3)nn2CC2CC(C(F)F)C2)ccn1 (single isomer, unassigned) [SC-221b, 4-(3-cyclopropyl-1-((3-(difluoromethyl)cyclobutyl)methyl)-4-(trifluoromethyl)-1H-pyrazole-5-carboxamido)picolinamide]

IC50: ≤ 100 nM
SMILES: Cc1c(C(F)(F)F)nn(CC2CCC(F)(F)C2)c1C(=O)Nc1ccnc(S(N)(=O)=O)c1 (single isomer, unassigned) [SC-254a]

IC50: ≤ 100 nM
SMILES: NC(=O)c1cc(NC(=O)c2c(C(F)(F)F)c(C3CC3)nn2CC2CCCCO2)ccn1 (single isomer, unassigned) [SC-258b]

IC50: ≤ 100 nM
SMILES: CS(=O)(=O)c1cc(NC(=O)c2c(C(F)(F)F)c(C3CC3)nn2CC2CCCCO2)ccn1 (single isomer, unassigned) [SC-259b]

IC50: 100 to 1000 nM
SMILES: COc1c(C(C)(F)F)nn(CC2CCC(F)(F)C2)c1C(=O)Nc1ccnc(C(N)=O)c1 (single isomer, unassigned) [SC-271b]

IC50: ≤ 100 nM
SMILES: CS(=O)(=O)c1cc(NC(=O)c2c(C(F)(F)F)c(C3CC3)nn2CC2CCC(F)(F)C2)ccn1 (single isomer, unassigned) [SC-277a]

IC50: ≤ 100 nM
SMILES: Cc1c(C(F)(F)C(F)(F)F)nn(CC2CCC2(F)F)c1C(=O)Nc1ccnc(C(N)=O)c1 (single isomer, unassigned) [SC-278a]

IC50: 100 to 1000 nM
SMILES: NC(=O)c1cc(NC(=O)c2c(C(F)(F)F)c(C3CC3)nn2CC2CC2(F)F)ccn1 (single isomer, unassigned) [SC-279a]

IC50: 100 to 1000 nM
SMILES: NC(=O)c1cc(NC(=O)c2c(C(F)(F)F)c(C3CC3)nn2CC2CC2(F)F)ccn1 (single isomer, unassigned) [SC-279b]

IC50: 100 to 1000 nM
SMILES: COC1CC(Cn2nc(C3CC3)c(C(F)(F)F)c2C(=O)Nc2ccnc(C(N)=O)c2)C1 (single isomer, unassigned) [SC-281a]

IC50: ≤ 100 nM
SMILES: NC(=O)c1cc(NC(=O)c2c(C(F)(F)F)c(C3CC3)nn2C[C@@H]2CC[C@H](C(F)(F)F)O2)ccn1 (single isomer, unassigned) [SC-284a]

IC50: ≤ 100 nM
SMILES: NC(=O)c1cc(NC(=O)c2c(C(F)(F)F)c(C3CC3)nn2CC2CC(F)(F)C2(F)F)ccn1 (single isomer, unassigned) [SC-291a]

IC50: 1000 to 10000 nM
SMILES: Cc1c(C(C)(F)F)nn(CC2(C)CCCO2)c1C(=O)Nc1ccnc(S(N)(=O)=O)c1 (single isomer, unassigned) [SC-319b]

IC50: 100 to 1000 nM
SMILES: CS(=O)(=O)c1cccc(NC(=O)c2cc(C(F)(F)F)nn2CC2CCCCC2)c1 [SC-01, 1-(cyclohexylmethyl)-N-(3-(methylsulfonyl)phenyl)-3-(trifluoromethyl)-1H-pyrazole-5-carboxamide]

IC50: 100 to 1000 nM
SMILES: CS(=O)(=O)c1cccc(NC(=O)c2cc(C(F)(F)F)nn2CC2CCC(F)(F)CC2)c1 [SC-02, 2-[(4,4-difluorocyclohexyl)methyl]-N-(3-methylsulfonylphenyl)-5-(trifluoromethyl)pyrazole-3-carboxamide]

IC50: 1000 to 10000 nM
SMILES: CS(=O)(=O)c1cccc(NC(=O)c2cc(C(F)(F)F)nn2CC2CCOCC2)c1 [SC-04, N-(3-methylsulfonylphenyl)-2-(oxan-4-ylmethyl)-5-(trifluoromethyl)pyrazole-3-carboxamide]

IC50: 100 to 1000 nM
SMILES: Cc1nn(CC2CCCCC2)c(C(=O)Nc2cccc(S(C)(=O)=O)c2)c1C [SC-06, 2-(cyclohexylmethyl)-4,5-dimethyl-N-(3-methylsulfonylphenyl)pyrazole-3-carboxamide]

Further lines, the compound ahead of its results:

SMILES: NC(=O)c1cc(NC(=O)c2c(C(F)(F)F)c(C3CC3)nn2CC2CC(C(F)F)C2)ccn1 (single isomer, unassigned) [SC-221a, 4-(3-cyclopropyl-1-((3-(difluoromethyl)cyclobutyl)methyl)-4-(trifluoromethyl)-1H-pyrazole-5-carboxamido)picolinamide]
IC50: ≤ 100 nM

SMILES: Cc1c(C(F)(F)F)nn(CC2CCC(F)(F)C2)c1C(=O)Nc1ccnc(S(N)(=O)=O)c1 (single isomer, unassigned) [SC-254b]
IC50: ≤ 100 nM

SMILES: NC(=O)c1cc(NC(=O)c2c(C(F)(F)F)c(C3CC3)nn2CC2CCCCO2)ccn1 (single isomer, unassigned) [SC-258a]
IC50: ≤ 100 nM

SMILES: CS(=O)(=O)c1cc(NC(=O)c2c(C(F)(F)F)c(C3CC3)nn2CC2CCCCO2)ccn1 (single isomer, unassigned) [SC-259a]
IC50: ≤ 100 nM

SMILES: COc1c(C(C)(F)F)nn(CC2CCC(F)(F)C2)c1C(=O)Nc1ccnc(C(N)=O)c1 (single isomer, unassigned) [SC-271a]
IC50: 100 to 1000 nM

SMILES: CS(=O)(=O)c1cc(NC(=O)c2c(C(F)(F)F)c(C3CC3)nn2CC2CCC(F)(F)C2)ccn1 (single isomer, unassigned) [SC-277b]
IC50: ≤ 100 nM

SMILES: Cc1c(C(F)(F)C(F)(F)F)nn(CC2CCC2(F)F)c1C(=O)Nc1ccnc(C(N)=O)c1 (single isomer, unassigned) [SC-278b]
IC50: ≤ 100 nM

SMILES: COC1CC(Cn2nc(C3CC3)c(C(F)(F)F)c2C(=O)Nc2ccnc(C(N)=O)c2)C1 (single isomer, unassigned) [SC-281b]
IC50: 100 to 1000 nM

SMILES: NC(=O)c1cc(NC(=O)c2c(C(F)(F)F)c(C3CC3)nn2C[C@@H]2CC[C@H](C(F)(F)F)O2)ccn1 (single isomer, unassigned) [SC-284b]
IC50: ≤ 100 nM

SMILES: C[C@@H]1CC[C@H](Cn2nc(C3CC3)c(C(F)(F)F)c2C(=O)Nc2ccnc(C(N)=O)c2)O1 (single isomer, unassigned) [SC-286a]
IC50: 100 to 1000 nM

SMILES: C[C@@H]1CC[C@H](Cn2nc(C3CC3)c(C(F)(F)F)c2C(=O)Nc2ccnc(C(N)=O)c2)O1 (single isomer, unassigned) [SC-286b]
IC50: 100 to 1000 nM

SMILES: NC(=O)c1cc(NC(=O)c2c(C(F)(F)F)c(C3CC3)nn2CC2CC(F)(F)C2(F)F)ccn1 (single isomer, unassigned) [SC-291b]
IC50: ≤ 100 nM

SMILES: Cc1c(C(C)(F)F)nn(CC2CCC(F)(F)C2)c1C(=O)Nc1cccc(S(N)(=O)=O)c1 (single isomer, unassigned) [SC-296a]
IC50: ≤ 100 nM

SMILES: Cc1c(C(C)(F)F)nn(C[C@H]2CCC(F)(F)C2)c1C(=O)Nc1cccc(S(N)(=O)=O)c1 (single isomer, unassigned) [SC-296b]
IC50: ≤ 100 nM

SMILES: Cc1c(C(C)(F)F)nn(CC2(C)CCCCO2)c1C(=O)Nc1ccnc(S(N)(=O)=O)c1 (single isomer, unassigned) [SC-312a]
IC50: 100 to 1000 nM

SMILES: Cc1c(C(C)(F)F)nn(C[C@@]2(C)CCCCO2)c1C(=O)Nc1ccnc(S(N)(=O)=O)c1 (single isomer, unassigned) [SC-312b]
IC50: 100 to 1000 nM

SMILES: Cc1c(C(C)(F)F)nn(C[C@@H]2CC[C@H]2C(F)(F)F)c1C(=O)Nc1ccnc(C(N)=O)c1 (single isomer, unassigned) [SC-315a]
IC50: ≤ 100 nM

SMILES: Cc1c(C(C)(F)F)nn(C[C@@H]2CC[C@H]2C(F)(F)F)c1C(=O)Nc1ccnc(C(N)=O)c1 (single isomer, unassigned) [SC-315b]
IC50: ≤ 100 nM

SMILES: Cc1c(C(C)(F)F)nn(C[C@]2(C)CCCO2)c1C(=O)Nc1ccnc(S(N)(=O)=O)c1 (single isomer, unassigned) [SC-319a]
IC50: 100 to 1000 nM

SMILES: Cc1c(C(C)(F)F)nn(CC2C[C@H]2C(F)F)c1C(=O)Nc1ccnc(S(C)(=O)=O)c1 (stereo in doubt) [SC-207, 3-(1,1-difluoroethyl)-1-((2-(difluoromethyl)cyclopropyl)methyl)-4-methyl-N-(2-(methylsulfonyl)pyridin-4-yl)-1H-pyrazole-5-carboxamide]
IC50: 100 to 1000 nM

SMILES: CS(=O)(=O)c1cccc(NC(=O)c2cc(C(F)(F)F)nn2CC2CCCC2)c1 [SC-03, 2-(cyclopentylmethyl)-N-(3-methylsulfonylphenyl)-5-(trifluoromethyl)pyrazole-3-carboxamide]
IC50: 100 to 1000 nM

SMILES: CS(=O)(=O)c1cccc(NC(=O)c2c(C(F)(F)F)cnn2CC2CCC(F)(F)CC2)c1 [SC-05, 2-[(4,4-difluorocyclohexyl)methyl]-N-(3-methylsulfonylphenyl)-4-(trifluoromethyl)pyrazole-3-carboxamide]
IC50: 100 to 1000 nM

Reference: US11999699B2, “Substituted pyrazole amides” (GRUENENTHAL GMBH, priority 2021, dated 2024)
